Experimental data from patent US9550811B2, “Peptide scaffold design” (BIONOR IMMUNO AS, priority 2010, dated 2017).
Where no end group is shown, it is not given here. [ ]: non-standard residue; d: D form. Nle = CCCC[C@H](N)C(=O)O

How the values were obtained:
Test in all cases: REVEAL binding assay
Settings in all cases: score as percentage of the signal generated by the positive control peptide
HLA-B27 = HLA-B27 (Homo sapiens, UniProt P01889, D138H/D201E/E176V/E204Q/G107R/H137Y/K202T/N104T/N87E/Q56L/Q94K/R106L/R155S/R180L/S101D/S121N/S48T/Y140D/Y33H/Y91C)
Outline: (§1)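 Synthetic nonamer peptides were tested for their ability to bind and stabilize MHC class I–peptide complexes, detected by the native conformation of the complex. Each peptide is scored relative to a positive-control known T-cell epitope.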

HLA-B7 = HLA-B7 (Homo sapiens, UniProt P01889)
Sequence of HLA-B7 (P61769 21-119): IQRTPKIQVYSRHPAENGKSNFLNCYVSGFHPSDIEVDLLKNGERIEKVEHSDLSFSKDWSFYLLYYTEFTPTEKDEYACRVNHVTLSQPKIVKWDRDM
Sequence of HLA-B7 (P01889 25-299): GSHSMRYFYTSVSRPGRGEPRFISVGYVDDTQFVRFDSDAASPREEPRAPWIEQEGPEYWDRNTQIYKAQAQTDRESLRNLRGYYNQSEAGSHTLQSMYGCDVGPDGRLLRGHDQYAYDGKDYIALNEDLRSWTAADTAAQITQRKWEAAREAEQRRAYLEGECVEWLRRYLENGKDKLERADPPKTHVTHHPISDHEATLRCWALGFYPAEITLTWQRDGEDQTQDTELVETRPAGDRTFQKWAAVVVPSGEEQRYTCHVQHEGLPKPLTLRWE
Outline: as §1

HLA-A3 = HLA-A3 (Homo sapiens, UniProt P04439)
Sequence of HLA-A3 (P04439 25-299): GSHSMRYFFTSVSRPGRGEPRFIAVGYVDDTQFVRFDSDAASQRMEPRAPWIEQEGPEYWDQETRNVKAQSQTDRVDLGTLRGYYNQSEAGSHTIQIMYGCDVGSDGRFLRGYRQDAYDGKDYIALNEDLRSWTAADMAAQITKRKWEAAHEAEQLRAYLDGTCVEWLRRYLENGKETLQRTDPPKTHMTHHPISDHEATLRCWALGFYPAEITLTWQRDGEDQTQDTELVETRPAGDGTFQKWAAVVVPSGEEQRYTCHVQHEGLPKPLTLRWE
Sequence of HLA-A3 (P61769 21-119, further chain): as the sequence (P61769 21-119) above
Outline: as §1

HLA-A11 = HLA-A11 (Homo sapiens, UniProt P04439, A114D/F33Y/S129P)
Outline: as §1

HLA-A2 = HLA-A2 (Homo sapiens, UniProt P04439, D140Y/D185E/D98H/E176V/E277Q/G131W/G231S/I119V/I121R/I166T/I218V/N151K/N90K/P208A/P217A/Q86G/Q94H/R138H/R169H)
Outline: as §1

HLA-B40 = system: HLA-B40
Outline: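 Score = % of signal from a positive-control T cell epitope, reflecting how well each ninemer stabilizes the native MHC class I–peptide complex. An intermediate control of lower affinity verified each run.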

HLA-A24 = system: HLA-A24
HLA-B35 = system: HLA-B35
HLA-A29 = system: HLA-A29
HLA-B14 = system: HLA-B14
HLA-B15 = system: HLA-B15
HLA-B8 = system: HLA-B8
HLA-A1 = system: HLA-A1

Row | Substance | REVEAL binding score, HLA-type B27 (HLA-B27) [%] | REVEAL binding score, HLA-type B7 (HLA-B7) [%] | REVEAL binding score, HLA-type A3 (HLA-A3) [%] | REVEAL binding score, HLA-type A11 (HLA-A11) [%] | REVEAL binding score, HLA-type A2 (HLA-A2) [%] | REVEAL binding score, HLA-type B40 (HLA-B40) [%] | REVEAL binding score, HLA-type A24 (HLA-A24) [%] | REVEAL binding score, HLA-type B35 (HLA-B35) [%] | REVEAL binding score, HLA-type A29 (HLA-A29) [%] | REVEAL binding score, HLA-type B14 (HLA-B14) [%] | REVEAL binding score, HLA-type B15 (HLA-B15) [%] | REVEAL binding score, HLA-type B8 (HLA-B8) [%] | REVEAL binding score, HLA-type A1 (HLA-A1) [%]
1 | ITFSIYLIV | 4.79 | 4.32 | 1.66 | 5.31 | 43.08 | 78.84 | 0.77 | 12.30 | 24.10 | 1.53 | 6.68 | 11.38 | 9.89
2 | IVGGVYLLP | 0.68 | 24.16 | 1.88 | 3.10 | 6.78 | 19.83 | 0.30 | 2.68 | 12.38 | 1.65 | 15.00 | 11.48 | 22.11
3 | KVIDTLTCG | 0.63 | 0.57 | 4.27 | 8.91 | 19.13 | 32.89 | 0.57 | 2.74 | 13.16 | 0.18 | 10.13 | 13.17 | 15.77
4 | LGKVIDTLT | 2.90 | 0.94 | 7.39 | 12.95 | 4.05 | 44.92 | 0.70 | 5.11 | 15.99 | 0.43 | 7.14 | 17.96 | 22.08
5 | LGRVIETLT | 2.54 | 2.66 | 7.40 | 20.27 | 5.90 | 62.07 | 0.97 | 3.43 | 12.31 | 0.28 | 16.38 | 14.74 | 16.33
6 | LMGYIPLVG | 1.44 | 0.41 | 2.53 | 2.13 | 31.94 | 33.55 | 0.51 | 0.81 | 24.26 | 0.08 | 9.43 | 20.75 | 14.17
7 | LPAVGAPIG | 0.49 | 8.12 | 3.02 | 4.95 | 5.60 | 39.31 | 0.61 | 1.06 | 25.32 | 0.12 | 10.10 | 15.87 | 20.57
8 | L[Nle]GYIPLIG | 0.73 | 0.89 | 3.98 | 2.48 | 49.48 | 57.46 | 0.71 | 2.85 | 25.94 | 0.15 | 14.60 | 17.29 | 14.33
9 | MGYIPLVGA | 0.83 | 0.80 | 3.40 | 4.79 | 10.71 | 40.78 | 0.35 | 0.85 | 19.54 | 0.73 | 8.85 | 14.88 | 11.34
10 | NIPGSTYSL | 2.29 | 4.80 | 3.98 | 3.20 | 5.71 | 37.01 | 8.50 | 4.71 | 31.99 | 0.46 | 4.46 | 7.66 | 8.41
11 | NLGKVIDTL | 2.64 | 2.64 | 6.41 | 12.81 | 7.70 | 53.82 | 1.16 | 4.39 | 10.67 | 0.57 | 12.59 | 16.86 | 18.14
12 | NLGRVIETL | 1.66 | 1.47 | 2.86 | 4.53 | 11.97 | 38.91 | 0.86 | 2.82 | 16.44 | 0.07 | 16.29 | 15.58 | 18.24
13 | NLPGCSFSI | 3.37 | 1.54 | 8.15 | 3.47 | 47.28 | 60.68 | 85.91 | 5.31 | 22.34 | 0.36 | 3.11 | 9.89 | 13.15
